Measurements reported in paper doi:10.1101/2021.09.30.462449v1 (biorxiv, 2021).

Key:
Test in all cases: biochemical
[1] = target: EIF2AK2 (PKR) (Homo sapiens, UniProt P19525); details: read-out: % inhibition mean (Lanthascreen)
[2] = target: STK38 (NDR) (Homo sapiens, UniProt Q15208); details: read-out: % inhibition mean (Lanthascreen)
[3] = target: AMPK (A1/B2/G1) (Homo sapiens, UniProt Q13131); details: read-out: % inhibition mean (Lanthascreen)
[4] = target: MAPK9 (JNK2) (Homo sapiens, UniProt P45984); details: read-out: % inhibition mean (Lanthascreen)
Chain of MAPK9 (JNK2) (P45984 whole entry): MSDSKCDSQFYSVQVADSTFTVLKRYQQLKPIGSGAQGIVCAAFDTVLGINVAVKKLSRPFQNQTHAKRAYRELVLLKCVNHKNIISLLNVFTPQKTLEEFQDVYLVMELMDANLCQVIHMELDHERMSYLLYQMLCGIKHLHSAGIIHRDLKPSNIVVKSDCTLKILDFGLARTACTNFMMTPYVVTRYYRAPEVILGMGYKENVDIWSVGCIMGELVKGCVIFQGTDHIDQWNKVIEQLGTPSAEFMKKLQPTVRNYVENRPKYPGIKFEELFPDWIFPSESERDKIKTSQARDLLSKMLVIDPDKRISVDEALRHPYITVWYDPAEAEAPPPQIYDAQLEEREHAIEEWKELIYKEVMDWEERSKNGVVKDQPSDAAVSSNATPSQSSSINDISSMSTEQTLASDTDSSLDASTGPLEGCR

[5] = target: MYO3B (MYO3 beta) (Homo sapiens, UniProt Q8WXR4); details: read-out: % inhibition mean (Lanthascreen)
Chain of MYO3B (MYO3 beta) (Q8WXR4 whole entry): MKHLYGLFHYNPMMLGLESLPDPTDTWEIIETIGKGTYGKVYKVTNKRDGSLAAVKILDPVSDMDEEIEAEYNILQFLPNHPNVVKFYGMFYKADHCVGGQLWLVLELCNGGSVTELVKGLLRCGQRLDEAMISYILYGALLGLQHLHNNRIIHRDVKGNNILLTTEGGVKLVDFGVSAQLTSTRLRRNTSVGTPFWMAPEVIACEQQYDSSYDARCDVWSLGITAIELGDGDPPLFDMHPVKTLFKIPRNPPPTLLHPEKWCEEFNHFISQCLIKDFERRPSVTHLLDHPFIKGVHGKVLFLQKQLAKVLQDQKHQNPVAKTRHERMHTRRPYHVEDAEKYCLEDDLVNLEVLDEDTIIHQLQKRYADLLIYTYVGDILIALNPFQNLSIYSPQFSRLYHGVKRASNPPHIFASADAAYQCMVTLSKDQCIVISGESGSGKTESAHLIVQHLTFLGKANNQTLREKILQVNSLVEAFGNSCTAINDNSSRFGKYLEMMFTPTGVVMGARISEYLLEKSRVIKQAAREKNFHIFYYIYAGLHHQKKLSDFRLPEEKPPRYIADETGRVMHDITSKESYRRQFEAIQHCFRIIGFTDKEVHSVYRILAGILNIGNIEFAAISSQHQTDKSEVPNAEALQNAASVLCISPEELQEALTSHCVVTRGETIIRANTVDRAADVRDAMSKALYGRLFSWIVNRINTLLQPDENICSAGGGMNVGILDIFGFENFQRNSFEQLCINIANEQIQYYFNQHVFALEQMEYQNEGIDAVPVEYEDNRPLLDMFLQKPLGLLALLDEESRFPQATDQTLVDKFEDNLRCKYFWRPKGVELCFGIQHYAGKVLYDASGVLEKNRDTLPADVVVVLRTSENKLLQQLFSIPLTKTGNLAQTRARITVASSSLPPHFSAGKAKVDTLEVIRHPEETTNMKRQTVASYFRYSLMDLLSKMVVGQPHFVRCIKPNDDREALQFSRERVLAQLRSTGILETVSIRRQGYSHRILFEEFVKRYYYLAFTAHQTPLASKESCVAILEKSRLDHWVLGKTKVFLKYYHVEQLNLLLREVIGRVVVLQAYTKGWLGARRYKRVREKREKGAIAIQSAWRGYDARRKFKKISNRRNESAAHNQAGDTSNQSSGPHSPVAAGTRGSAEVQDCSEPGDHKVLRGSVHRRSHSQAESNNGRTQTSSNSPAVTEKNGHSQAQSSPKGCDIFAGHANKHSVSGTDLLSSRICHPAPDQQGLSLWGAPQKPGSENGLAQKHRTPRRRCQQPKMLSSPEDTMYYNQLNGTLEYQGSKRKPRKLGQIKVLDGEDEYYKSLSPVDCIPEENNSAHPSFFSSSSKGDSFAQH

[6] = target: ICK (Homo sapiens, UniProt Q9UPZ9); details: read-out: % inhibition mean (Lanthascreen)
[7] = target: AMPK (A1/B1/G3) (Homo sapiens, UniProt Q13131); details: read-out: % inhibition mean (Lanthascreen)
[8] = target: DYRK2 (Homo sapiens, UniProt Q92630); details: read-out: % inhibition mean (Lanthascreen)
[9] = target: IRAK3 (Homo sapiens, UniProt Q9Y616); details: read-out: % inhibition mean (Lanthascreen)
[10] = target: WNK3 (Homo sapiens, UniProt Q9BYP7); details: read-out: % inhibition mean (Lanthascreen)
Chain of WNK3 (Q9BYP7 whole entry): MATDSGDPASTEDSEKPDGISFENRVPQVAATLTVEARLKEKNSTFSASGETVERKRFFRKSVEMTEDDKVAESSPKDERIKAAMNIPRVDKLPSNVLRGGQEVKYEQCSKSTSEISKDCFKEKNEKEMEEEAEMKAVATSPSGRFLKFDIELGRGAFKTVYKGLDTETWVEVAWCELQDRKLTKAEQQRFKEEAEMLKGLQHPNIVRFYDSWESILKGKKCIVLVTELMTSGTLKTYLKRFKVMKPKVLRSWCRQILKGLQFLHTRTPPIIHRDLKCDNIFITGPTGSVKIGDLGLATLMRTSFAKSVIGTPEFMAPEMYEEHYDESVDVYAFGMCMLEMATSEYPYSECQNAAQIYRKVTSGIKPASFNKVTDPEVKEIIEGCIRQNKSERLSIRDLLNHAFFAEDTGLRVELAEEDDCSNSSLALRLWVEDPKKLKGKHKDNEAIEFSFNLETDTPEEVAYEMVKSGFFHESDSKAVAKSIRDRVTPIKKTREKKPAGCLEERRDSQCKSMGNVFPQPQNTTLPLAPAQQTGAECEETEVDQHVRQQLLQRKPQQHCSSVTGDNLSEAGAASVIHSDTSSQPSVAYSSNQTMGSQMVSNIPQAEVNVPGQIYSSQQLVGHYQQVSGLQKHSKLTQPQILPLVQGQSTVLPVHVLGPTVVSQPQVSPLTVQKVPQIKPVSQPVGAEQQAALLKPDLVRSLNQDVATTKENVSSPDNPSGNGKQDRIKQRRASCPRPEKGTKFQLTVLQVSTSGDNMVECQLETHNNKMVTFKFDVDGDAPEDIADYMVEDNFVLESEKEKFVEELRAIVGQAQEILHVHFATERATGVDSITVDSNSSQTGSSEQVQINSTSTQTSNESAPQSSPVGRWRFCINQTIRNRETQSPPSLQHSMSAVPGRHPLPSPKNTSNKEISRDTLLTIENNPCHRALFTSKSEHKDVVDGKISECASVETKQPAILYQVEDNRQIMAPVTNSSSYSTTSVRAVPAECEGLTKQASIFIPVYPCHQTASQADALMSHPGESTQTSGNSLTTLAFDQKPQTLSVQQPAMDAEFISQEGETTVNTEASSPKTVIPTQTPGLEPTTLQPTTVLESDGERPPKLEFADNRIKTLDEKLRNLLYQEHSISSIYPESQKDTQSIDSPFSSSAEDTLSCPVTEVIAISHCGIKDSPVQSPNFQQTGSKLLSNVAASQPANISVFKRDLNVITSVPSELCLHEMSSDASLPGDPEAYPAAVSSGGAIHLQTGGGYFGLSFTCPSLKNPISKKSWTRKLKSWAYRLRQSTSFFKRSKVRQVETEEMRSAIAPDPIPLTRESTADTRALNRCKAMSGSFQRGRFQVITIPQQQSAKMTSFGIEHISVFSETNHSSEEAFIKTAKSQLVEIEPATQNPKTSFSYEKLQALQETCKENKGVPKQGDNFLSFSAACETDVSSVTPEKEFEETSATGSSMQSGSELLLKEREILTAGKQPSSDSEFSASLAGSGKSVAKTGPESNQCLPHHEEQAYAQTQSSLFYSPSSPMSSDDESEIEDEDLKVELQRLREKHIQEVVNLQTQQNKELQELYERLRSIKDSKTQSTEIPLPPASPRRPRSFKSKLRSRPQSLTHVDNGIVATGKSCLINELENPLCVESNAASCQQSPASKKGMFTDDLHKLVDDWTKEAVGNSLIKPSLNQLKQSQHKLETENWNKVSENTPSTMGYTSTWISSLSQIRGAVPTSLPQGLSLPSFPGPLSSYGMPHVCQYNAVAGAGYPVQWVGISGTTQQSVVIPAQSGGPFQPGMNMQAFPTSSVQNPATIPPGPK

[11] = target: MAP2K5 (MEK5) (Homo sapiens, UniProt Q13163); details: read-out: % inhibition mean (Lanthascreen)
[12] = target: TLK1 (Homo sapiens, UniProt Q9UKI8); details: read-out: % inhibition mean (Lanthascreen)
[13] = target: MET D1228H (Homo sapiens, UniProt P08581, D1228H); details: read-out: % inhibition mean (Lanthascreen)
[14] = target: TESK2 (Homo sapiens, UniProt Q96S53); details: read-out: % inhibition mean (Lanthascreen)
[15] = target: ULK1 (Homo sapiens, UniProt O75385); details: read-out: % inhibition mean (Lanthascreen)
[16] = target: MAP2K1 (MEK1) S218D S222D (Homo sapiens, UniProt Q02750, S218D/S222D); details: read-out: % inhibition mean (Lanthascreen)
[17] = target: MAPK10 (JNK3) (Homo sapiens, UniProt P53779); details: read-out: % inhibition mean (Lanthascreen)
[18] = target: CDK8/cyclin C (Homo sapiens, UniProt P49336); details: read-out: % inhibition mean (Lanthascreen)
[19] = target: RAF1 (cRAF) Y340D Y341D (Homo sapiens, UniProt P04049, Y340D/Y341D); details: read-out: % inhibition mean (Lanthascreen)
[20] = target: TEC (Homo sapiens, UniProt P42680); details: read-out: % inhibition mean (Lanthascreen)
[21] = target: TAOK3 (JIK) (Homo sapiens, UniProt Q9H2K8); details: read-out: % inhibition mean (Lanthascreen)
[22] = target: NEK8 (Homo sapiens, UniProt Q86SG6); details: read-out: % inhibition mean (Lanthascreen)
[23] = target: STK17A (DRAK1) (Homo sapiens, UniProt Q9UEE5); details: read-out: % inhibition mean (Lanthascreen)
[24] = target: LIMK1 (Homo sapiens, UniProt P53667); details: read-out: % inhibition mean (Lanthascreen)
Chain of LIMK1 (P53667 whole entry): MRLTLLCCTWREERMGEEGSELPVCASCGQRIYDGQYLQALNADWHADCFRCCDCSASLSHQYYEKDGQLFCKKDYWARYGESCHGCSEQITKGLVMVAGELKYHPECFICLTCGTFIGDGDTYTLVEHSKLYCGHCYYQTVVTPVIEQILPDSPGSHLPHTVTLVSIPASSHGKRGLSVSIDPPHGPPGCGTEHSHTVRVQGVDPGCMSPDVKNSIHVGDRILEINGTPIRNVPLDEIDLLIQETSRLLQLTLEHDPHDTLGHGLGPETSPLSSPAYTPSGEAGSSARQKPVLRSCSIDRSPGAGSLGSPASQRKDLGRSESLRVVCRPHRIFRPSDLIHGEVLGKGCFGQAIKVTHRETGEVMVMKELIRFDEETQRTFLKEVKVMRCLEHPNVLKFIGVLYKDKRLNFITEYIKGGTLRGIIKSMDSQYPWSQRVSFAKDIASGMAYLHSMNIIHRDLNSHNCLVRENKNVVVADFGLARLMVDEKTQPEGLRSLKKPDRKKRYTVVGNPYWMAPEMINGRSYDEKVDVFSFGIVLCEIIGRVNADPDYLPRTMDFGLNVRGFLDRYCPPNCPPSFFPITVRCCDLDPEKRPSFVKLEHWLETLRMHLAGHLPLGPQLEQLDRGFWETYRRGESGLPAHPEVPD

[25] = target: FYN A (Homo sapiens, UniProt P06241); details: read-out: % inhibition mean (Lanthascreen)
Chain of FYN A (P06241 whole entry): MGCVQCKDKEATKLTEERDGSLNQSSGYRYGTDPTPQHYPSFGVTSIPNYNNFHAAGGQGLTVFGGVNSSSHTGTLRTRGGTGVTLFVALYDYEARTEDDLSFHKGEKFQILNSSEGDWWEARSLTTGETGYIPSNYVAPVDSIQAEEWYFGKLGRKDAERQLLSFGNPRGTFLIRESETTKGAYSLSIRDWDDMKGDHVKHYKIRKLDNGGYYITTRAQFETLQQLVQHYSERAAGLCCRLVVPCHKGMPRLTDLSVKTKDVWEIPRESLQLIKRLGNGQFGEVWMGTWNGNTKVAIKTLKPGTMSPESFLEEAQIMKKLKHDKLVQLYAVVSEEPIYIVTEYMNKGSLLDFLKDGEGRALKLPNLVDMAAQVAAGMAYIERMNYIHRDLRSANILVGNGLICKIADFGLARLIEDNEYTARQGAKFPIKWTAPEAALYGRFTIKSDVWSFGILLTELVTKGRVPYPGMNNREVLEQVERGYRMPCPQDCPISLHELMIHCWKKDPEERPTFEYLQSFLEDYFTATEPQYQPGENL

[26] = target: BMPR1A (ALK3) (Homo sapiens, UniProt P36894); details: read-out: % inhibition mean (Lanthascreen)
[27] = target: DYRK1B (Homo sapiens, UniProt Q9Y463); details: read-out: % inhibition mean (Z'Lyte)
[28] = target: LTK (TYK1) (Homo sapiens, UniProt P29376); details: read-out: % inhibition mean (Z'Lyte)

For `COc1ccc2nc3cc(Cl)ccc3c(Nc3cc(CN4CCCC4)c(O)c(CN4CCCC4)c3)c2n1` [Pyronaridine, 4-[(7-Chloro-2-methoxybenzo[b][1,5]naphthyridin-10-yl)amino]-2,6-bis(1-pyrrolidinylmethyl)phenol phosphate (1:4)], the inhibition at 1 µM [1] was 4%, the inhibition at 1 µM [2] was 2% and the inhibition at 1 µM [3] was -2%. For the same compound, the inhibition at 1 µM [4] was 6%, the inhibition at 1 µM [5] was 5% and the inhibition at 1 µM [6] was 0%. For the same compound, the inhibition at 1 µM [7] was -1%, the inhibition at 1 µM [8] was -7% and the inhibition at 1 µM [9] was -5%. The inhibition at 1 µM [10] was 7%, the inhibition at 1 µM [11] was 1% and the inhibition at 1 µM [12] was 12%. It also gave an inhibition at 1 µM [13] of 3%, an inhibition at 1 µM [14] of -3% and an inhibition at 1 µM [15] of -4%. For the same compound, the inhibition at 1 µM [16] was 3%, the inhibition at 1 µM [17] was 5% and the inhibition at 1 µM [18] was 3%. For the same compound, the inhibition at 1 µM [19] was -5%, the inhibition at 1 µM [20] was 7% and the inhibition at 1 µM [21] was -2%. For the same compound, the inhibition at 1 µM [22] was 0%, the inhibition at 1 µM [23] was 1% and the inhibition at 1 µM [24] was -7%. For the same compound, the inhibition at 1 µM [25] was -3%, the inhibition at 1 µM [26] was 10% and the inhibition at 1 µM [27] was 1%. The inhibition at 1 µM [28] was -1%.
